Experimental findings from patent publication EP3178809A1, “HYBRID MOLECULE WITH STRUCTURAL AND ACTIVITY ELEMENTS OF RESVERATROL AND DIALLYL SULFIDE” (Albert-Ludwigs-Universität Freiburg, priority 2015, dated 2017) are described below.

Each structure is given as a SMILES string. Entries after “also recorded” stand apart in the source; their conditions may differ.

Experiment [1] deals with humane Magenkarzinomzellen MKN-45. Nature of the experiment: Apoptosis induction in tumour cells (morphological criteria, duplicate assays). The class given is cell-based, human. Particulars: MKN-45, apoptosis. The procedure:
Nach 3 Stunden bei 37 ° C, 5 % CO2 wurden die Prozentsätze apoptotischer Zellen bestimmt. […] Nach 3 Stunden bei 37 ° C, 5 % CO2 wurden die Prozentsätze apoptotischer Zellen bestimmt.
Die Daten basieren allesamt auf der quantitativen Bestimmung der Apoptose mittels der klassischen morphologischen Kriterien Kernkondensation, Kernfragmentation und Membrane Blebbing nach definierten Inkubationszeiten bei 37°C.
Die Ansätze erfolgten bei einer Zelldichte von 125 000 Zellen/ml in 96-Loch-Platten mit einem Reaktionsvolumen von 100 µl. Alle Ansätze wurden als Doppelansätze geführt und pro Messpunkt wurden mindestens 200 Zellen morphologisch bewertet. Eine detaillierte Aufstellung der verwendeten Medien, Inhibitoren, Zellen ist in den Arbeiten Scheit and Bauer, 2015; Bauer und Zarkovic, 2014; Bauer et al., 2014; Bauer, 2015 beschrieben.
Um zu klären, ob das Hybridmolekül aus Struktur- und Wirkungselementen von Resveratrol und Diallyldisulfid in der Lage ist, Apoptose in Tumorzellen zu induzieren, und dabei zu prüfen, ob sich durch die Kombination der Einzelfunktionen in einem Molekül der Synergieeffekt bündeln ließ, wurden steigende Konzentrationen des Hybridmoleküls zu Magenkarzinomzellen der Linie MKN-45 gegeben. Die als Parallelansätze geführten Ansätze wurden sowohl ohne als auch in Anwesenheit von 2 mM des Singulettsauerstofffängers Histidin inkubiert, um zu prüfen, ob der durch das Hybridmolekül ausgelöste Effekt durch Singulettsauerstoff vermittelt wird. Zum Vergleich wurde das gleiche Experiment mit steigenden Konzentrationen DADS durchgeführt, ebenfalls mit und ohne Histidinzugabe. Nach 3,5 Stunden Inkubation wurde der Prozentsatz apoptotischer Zellen bestimmt.

In experiment [2] the target is T1, NOX1 von Magenkarzinomzellen (Homo sapiens, UniProt Q9Y5S8).
T1 construct: endogenous in cells; host or cells: MKN-45
T1 sequence (Q9Y5S8 1-564): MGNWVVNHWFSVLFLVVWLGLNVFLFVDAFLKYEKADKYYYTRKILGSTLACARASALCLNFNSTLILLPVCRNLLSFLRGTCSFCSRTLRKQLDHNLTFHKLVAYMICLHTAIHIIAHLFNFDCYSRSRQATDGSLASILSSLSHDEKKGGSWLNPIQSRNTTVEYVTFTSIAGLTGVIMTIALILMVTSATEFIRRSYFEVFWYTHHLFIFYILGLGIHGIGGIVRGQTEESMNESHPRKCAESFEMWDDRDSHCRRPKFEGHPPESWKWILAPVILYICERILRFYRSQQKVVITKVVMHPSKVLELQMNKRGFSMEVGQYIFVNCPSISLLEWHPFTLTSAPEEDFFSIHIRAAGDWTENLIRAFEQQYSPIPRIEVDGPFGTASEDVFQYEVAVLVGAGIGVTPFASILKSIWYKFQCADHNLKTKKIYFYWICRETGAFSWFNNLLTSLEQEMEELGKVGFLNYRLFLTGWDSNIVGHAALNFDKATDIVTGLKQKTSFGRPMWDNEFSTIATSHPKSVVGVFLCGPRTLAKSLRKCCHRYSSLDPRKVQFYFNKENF
T1 sequence (P13498 1-195 partner): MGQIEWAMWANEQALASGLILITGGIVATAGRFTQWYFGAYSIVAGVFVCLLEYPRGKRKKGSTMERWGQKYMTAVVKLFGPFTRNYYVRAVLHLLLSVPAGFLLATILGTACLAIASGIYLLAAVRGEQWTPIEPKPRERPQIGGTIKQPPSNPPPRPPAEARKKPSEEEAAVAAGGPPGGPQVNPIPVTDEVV
Briefly: Stimulation of superoxide anion production (shift of Cu/ZnSOD inhibition curve of 3-AT-reactivated apoptosis signalling). The following applies: 0.9 µM, MKN-45, 100 mM 3-AT plus Cu/ZnSOD, 5,5 Stunden. It is filed as cell-based. The procedure: MKN-45-Zellen unter Standardbedingungen erhielten zunächst keinen Zusatz (Kontrolle) oder 0.9 µM Resveratrol oder der Resveratrolderivate HT 161, HT 163, HT 182, die durch unterschiedliche Blockierung der drei vorhandenen OH-Gruppen gekennzeichnet sind. Dabei waren beim Derivat HT 161 alle drei OH-Gruppen durch TBS (tert-Butyldimethylsilyl) blockiert, beim Derivat HT 163 die beiden OH-Gruppen in den Positionen 3'und 5'blockiert und beim Derivat HT 182 selektiv nur die OH-Gruppe in der Position 4'blockiert.
Danach erfolgte die Zugabe von 100 mM 3-AT (Katalasehemmstoff) und der angegebenen Konzentrationen von Cu/ZnSOD. Nach 5,5 Stunden erfolgte die Bestimmung der Prozentsätze apoptotischer Zellen in Doppelansätzen.
Da 3-AT Superoxidanionen-abhängiges interzelluläres Apoptose-auslösendes Signaling reaktiviert, wird der Prozess durch Cu/Zn-SOD blockiert, wobei sich eine typische Glockenkurve ausbildet. Der biochemische Grund dafür wird in Bauer et al., Carcinogenesis 35: 1582-1591, 2014 dargestellt.
Die Messung der extrazellulären Superoxidanionenkonzentration von Tumorzellen sowie die Bestrahlungstechnik mit Niedrigdosis-Gammastrahlung wird in der Arbeit Temme and Bauer, 2013 beschrieben. Die Hemmung der NOD wird bei Scheit and Bauer, 2015, beschrieben. Viele Versuchsergebnisse wurden in den Figuren dargestellt. […]

Turning to `Oc1ccc(C=Cc2cc(O)cc(O)c2)cc1` [Resveratrol], in experiment [1], the “Synergieeffekt mit Taxol” value was “Synergieeffekt”. The “Synergieeffekt mit DADS” value in experiment [1] (3,5 Stunden (Figur 10) or 5,5 Stunden (Figur 15)) is reported as “konzentrationsabhängigen beachtlichen Synergieeffekt; also recorded: zur Ausprägung eines Synergieeffektes mit DADS befähigt”. Further, the “stimulierende Wirkung auf die Superoxidanionensynthese” value in experiment [2] is “Rechtsverschiebung der Kurve”.
